Results reported in patent publication US12378518B2, “Differentiation induction from human pluripotent stem cells into hypothalamic neurons” (National University Corporation Nagoya University, priority 2016, dated 2025).
“Also recorded” adds a separate entry of the source. Ends that are not written are not given here.

Experiments:
Format in all cases: cell-based
[1] = target: T1, CRH-R1 (Homo sapiens, UniProt P34998); experiment: ACTH suppression test using a CRH-R1 inhibitor; conditions: CRH-R1 inhibitor 10^−5 M added at the time of stimulation with CRH addition
T1 construct: it was confirmed, by analysis by the fluorescent antibody method, that ACTH positive cells were CRH-R1 positive; endogenous in cells; host or cells: pituitary tissue (ACTH-positive cells) differentiated from human iPS cells, 201B7 strain
T1 sequence (P34998 24-415): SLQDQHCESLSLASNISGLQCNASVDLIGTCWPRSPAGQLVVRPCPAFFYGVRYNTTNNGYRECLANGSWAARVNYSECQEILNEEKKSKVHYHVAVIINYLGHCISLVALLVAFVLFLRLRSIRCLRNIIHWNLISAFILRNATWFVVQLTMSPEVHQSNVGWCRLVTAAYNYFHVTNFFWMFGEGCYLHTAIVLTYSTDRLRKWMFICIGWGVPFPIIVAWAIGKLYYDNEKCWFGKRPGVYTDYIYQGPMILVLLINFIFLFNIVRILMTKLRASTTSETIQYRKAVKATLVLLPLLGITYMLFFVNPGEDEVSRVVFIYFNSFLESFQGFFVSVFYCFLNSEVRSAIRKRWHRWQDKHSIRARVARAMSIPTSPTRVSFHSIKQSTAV
Experimental: (§1) Human iPS cells (201B7 strain) were cultured under conditions (see column A.2) that were effective for simultaneous maturation of hypothalamus and pituitary. Pituitary tissue and hypothalamic tissue were observed on Day 60 of culture, and ACTH neurons were detected in pituitary tissue. In addition, the amount of ACTH secreted from pituitary tissue was increased by long-term culture (FIG. 19), and it was confirmed that the maturation of pituitary tissue had progressed with the lapse of culture time.
To further evaluate the function of pituitary tissue obtained by culture under the conditions in (1), an ACTH suppression test using a CRH-R1 inhibitor (Antalarmin, NBI2719) was performed (right in FIG. 23). A CRH-R1 inhibitor was added at a dose of 10^−5 M (test group) at the time of stimulation with CRH addition, and the amount of ACTH secreted was compared with that when no CRH-R1 inhibitor was added (control group). As a result of the test, the secretion of ACTH was suppressed by the CRH-R1 inhibitor (left and center in FIG. 23).

[2] = test system: human ES cells (KhES-1); experiment: Differentiation induction of human ES cells by SFEBq method, analysed by fluorescent antibody method; conditions: Day 30 of culture
Source text: Next, it was examined whether the method can be applied also to human ES cells. Human ES cells (KhES-1) were subjected to maintenance culture by a conventional method on MEF and then used. To monitor differentiation induction into a hypothalamic tissue, KhES-1 wherein a Venus cDNA has been knocked-in into the gene of Rx which is a hypothalamic nerve marker was used. To differentiate human ES cells by Serum-Free Embryonic Body quick method (SFEBq method), human ES cells were dispersed to single cells using an enzyme by the method of Nakano et al. (Cell Stem Cell. 2012 Jun. 14; 10 (6): 771-85), and reaggregated using a low cell adhesive V-bottom 96-well plate (Sumitomo Bakelite Co., Ltd.). Ten thousand (10,000) cells were seeded per well and cultured in a gfCDM differentiation medium at 37° C. under 5% CO2. With the day of seeding defined as Day 0 of differentiation culture, 20 μM Y-27632 (ROCK inhibitor: cell death suppressor at the time of dispersion: Watanabe et al. (Nat Biotechnol. 2007 June; 25 (6): 681-6. Epub 2007 May 27.)) was added from Day 0 to Day 3, and, on and after Day 3 of culture, a half of the medium was exchanged with a differentiation medium free from Y-27632 at a frequency of once every 3 days. Based on the thought that no aggregate was formed due to nutritional deficiency, a small amount of a serum alternative KSR was added to the gfCDM to verify the effect. Specifically, the SFEBq method was performed by mixing 2%, 5%, 10%, and 20% KSR in the gfCDM medium. On and after Day 18, the oxygen partial pressure during culture was set to 40%. The differentiation of the tissue was analyzed by a fluorescent antibody method. Based on the thought that the positional shift to the telencephalon was caused by various growth factors included in KSR, the addition of a bone morphogenetic protein signal transduction pathway activating substance was decided. Specifically, differentiation induction was attempted under the following conditions. […]

[3] = test system: AVP neurons induced from human ES cells (KhES-1); experiment: KCl stimulation test of induced AVP neurons (AVP hormone by RIA method); conditions: isotonic solution containing 0.1% potassium chloride for 30 minutes; cells on Day 180 of culture
Source text: As a result of continuing suspension culture under the dorsal hypothalamus induction conditions, the expression of Otp and Brn2 (generally, Otp and Brn2 positive hypothalamus is thought to be in the precursor state of AVP neurons) was confirmed on Day 60 of culture (FIG. 6), and a small number of AVP-positive cells were observed on Day 103 of culture (FIG. 7). In order to improve the induction efficiency, the incorporation of dissociation culture, which is considered to be advantageous in neurogenesis, was decided. Specifically, differentiation induction was attempted under the following conditions. Cell aggregates were dispersed, and cells were seeded at 2×10^4 to 40×10^4 cells/cm^2 on glass plates coated with Laminin, Poly-D-Lysine and Matrigel, respectively, and subjected to plane culture in media obtained by adding NT3, BDNF, CNTF, and FBS, respectively, to a DFNB medium. Medium exchange was carried out at a frequency of once every 3 days.
As a result of differentiation induction under the above conditions, the appearance of AVP neurons was confirmed on Day 150 of culture (FIG. 8). […] First, the medium after used for cell culture for 3 days was recovered, and the AVP hormone in the medium was measured by RIA method. […]

[4] = test system: pituitary tissue (ACTH neurons) from human iPS cells (201B7 strain); experiment: ACTH stimulation test using CRH; conditions: CRH added at 5 μg/ml; pituitary tissue from human iPS cells (201B7)
Experimental: as §1
In order to evaluate the function of pituitary tissue obtained by culture under the conditions in (1), an ACTH stimulation test using CRH (right in FIG. 21) was performed. The test method was in accordance with the previously reported method (Ozone C et al., Functional anterior pituitary generated in self-organizing culture of human embryonic stem cells. Nat Commun. 2016 Jan. 14; 7: 10351.) (CRH was added at 5 μg/ml). […] In addition, it was confirmed, by analysis by the fluorescent antibody method, that ACTH positive cells were CRH-R1 positive (center in FIG. 21).

[5] = SAG 0.5 μM with BMP signal activating substance 1.5 to 2.0 nM from Day 6

With `CCCCN(CC)c1nc(C)nc2c1c(C)c(C)n2-c1c(C)cc(C)cc1C` [Antalarmin] the “amount of ACTH secreted vs control group without CRH-R1 inhibitor” value [1] was “suppressed”.

With `CN[C@H]1CC[C@H](N(Cc2cccc(-c3ccncc3)c2)C(=O)c2sc3ccccc3c2Cl)CC1` [SAG] the “differentiation efficiency of hypothalamic precursor cells” value [2, 5] was “exceeded 80%” and the “marker expression of cell aggregates” value [2, 5] was “co-positive for Rx and Pax6 and Chx10 negative”.

With `[Cl-].[K+]` [potassium chloride] the “response of AVP neurons (AVP hormone secretion) to stimulation” value [3] was “responded well”.

For “CRH: corticotropin releasing hormone, added at 5 μg/ml in the ACTH stimulation test (SEEPPISLDLTFHLLREVLEMARAEQLAQQAHSNRKLMEII; ends and bridges not checked; UniProt P06850 154-194, looked up)”, the “ACTH secretion in response to CRH” value [4] was “ACTH was secreted in response to CRH”.

B1: BMP4: bone morphogenetic protein signal transduction pathway activating substance; a known cytokine (protein, UniProt P12644 293-408, looked up)
Bone morphogenetic protein 4: SPKHHSQRARKKNKNCRRHSLYVDFSDVGWNDWIVAPPGYQAFYCHGDCPFPLADHLNSTNHAIVQTLVNSVNSSIPKACCVPTELSAISMLYLDEYDKVVLKNYQEMVVEGCGCR
For B1, the marker expression ([2]; about 3.0 nM from Day 6, KSR-containing gfCDM) was “Rx as a hypothalamic marker and Pax6 as a dorsal marker became co-positive; also recorded: the retinal marker Chx10 also became positive”.
